Oligonucleotides are given in HELM: sugar(base)linkage, 5' to 3'; d 2'-deoxyribose, r ribose, m 2'-O-methylribose, p phosphate. ss, as = sense and antisense strand
biological target: Mmp7 (rat); experiment: reporter assay of Huesken 2005; settings: siRNA
Also: test concentration or dose not given here.

Point of comparison: “RNA1{r(U)p.r(U)p.r(C)p.r(G)p.r(C)p.r(A)p.r(A)p.r(G)p.r(G)p.r(G)p.r(G)p.r(A)p.r(G)p.r(A)p.r(U)p.r(C)p.r(A)p.r(C)p.r(G)p.d(T)p.d(T)}|RNA2{r(C)p.r(G)p.r(U)p.r(G)p.r(A)p.r(U)p.r(C)p.r(U)p.r(C)p.r(C)p.r(C)p.r(C)p.r(U)p.r(U)p.r(G)p.r(C)p.r(G)p.r(A)p.r(A)p.d(G)p.d(C)}$$$RNA1{StrandType:ss}|RNA2{StrandType:as}$”, normalised inhibition (eCFP-eYFP dual reporter) 26.8%. Against it:
- RNA1{r(U)p.r(G)p.r(U)p.r(G)p.r(A)p.r(U)p.r(G)p.r(U)p.r(A)p.r(C)p.r(C)p.r(C)p.r(U)p.r(A)p.r(C)p.r(C)p.r(U)p.r(A)p.r(U)p.d(T)p.d(T)}|RNA2{r(A)p.r(U)p.r(A)p.r(G)p.r(G)p.r(U)p.r(A)p.r(G)p.r(G)p.r(G)p.r(U)p.r(A)p.r(C)p.r(A)p.r(U)p.r(C)p.r(A)p.r(C)p.r(A)p.d(G)p.d(A)}$$$RNA1{StrandType:ss}|RNA2{StrandType:as}$ — higher, 107%
- RNA1{r(U)p.r(G)p.r(U)p.r(U)p.r(U)p.r(G)p.r(U)p.r(U)p.r(G)p.r(C)p.r(C)p.r(A)p.r(C)p.r(U)p.r(C)p.r(A)p.r(U)p.r(G)p.r(A)p.d(T)p.d(T)}|RNA2{r(U)p.r(C)p.r(A)p.r(U)p.r(G)p.r(A)p.r(G)p.r(U)p.r(G)p.r(G)p.r(C)p.r(A)p.r(A)p.r(C)p.r(A)p.r(A)p.r(A)p.r(C)p.r(A)p.d(G)p.d(G)}$$$RNA1{StrandType:ss}|RNA2{StrandType:as}$ — higher, 105%
- RNA1{r(U)p.r(U)p.r(A)p.r(C)p.r(C)p.r(U)p.r(U)p.r(C)p.r(A)p.r(C)p.r(G)p.r(A)p.r(C)p.r(U)p.r(C)p.r(U)p.r(A)p.r(A)p.r(A)p.d(T)p.d(T)}|RNA2{r(U)p.r(U)p.r(U)p.r(A)p.r(G)p.r(A)p.r(G)p.r(U)p.r(C)p.r(G)p.r(U)p.r(G)p.r(A)p.r(A)p.r(G)p.r(G)p.r(U)p.r(A)p.r(A)p.d(A)p.d(A)}$$$RNA1{StrandType:ss}|RNA2{StrandType:as}$ — higher, 131%
- RNA1{r(U)p.r(U)p.r(C)p.r(A)p.r(G)p.r(A)p.r(A)p.r(G)p.r(A)p.r(C)p.r(U)p.r(U)p.r(C)p.r(A)p.r(G)p.r(U)p.r(C)p.r(U)p.r(U)p.d(T)p.d(T)}|RNA2{r(A)p.r(A)p.r(G)p.r(A)p.r(C)p.r(U)p.r(G)p.r(A)p.r(A)p.r(G)p.r(U)p.r(C)p.r(U)p.r(U)p.r(C)p.r(U)p.r(G)p.r(A)p.r(A)p.d(T)p.d(G)}$$$RNA1{StrandType:ss}|RNA2{StrandType:as}$ — higher, 92.5%
- RNA1{r(U)p.r(U)p.r(C)p.r(C)p.r(U)p.r(G)p.r(U)p.r(U)p.r(U)p.r(G)p.r(U)p.r(U)p.r(G)p.r(C)p.r(C)p.r(A)p.r(C)p.r(U)p.r(C)p.d(T)p.d(T)}|RNA2{r(G)p.r(A)p.r(G)p.r(U)p.r(G)p.r(G)p.r(C)p.r(A)p.r(A)p.r(C)p.r(A)p.r(A)p.r(A)p.r(C)p.r(A)p.r(G)p.r(G)p.r(A)p.r(A)p.d(G)p.d(T)}$$$RNA1{StrandType:ss}|RNA2{StrandType:as}$ — higher, 37.6%
- RNA1{r(U)p.r(U)p.r(G)p.r(C)p.r(C)p.r(G)p.r(G)p.r(A)p.r(G)p.r(A)p.r(C)p.r(U)p.r(G)p.r(G)p.r(A)p.r(A)p.r(A)p.r(G)p.r(C)p.d(T)p.d(T)}|RNA2{r(G)p.r(C)p.r(U)p.r(U)p.r(U)p.r(C)p.r(C)p.r(A)p.r(G)p.r(U)p.r(C)p.r(U)p.r(C)p.r(C)p.r(G)p.r(G)p.r(C)p.r(A)p.r(A)p.d(A)p.d(C)}$$$RNA1{StrandType:ss}|RNA2{StrandType:as}$ — lower, 1.9%
- RNA1{r(U)p.r(U)p.r(U)p.r(A)p.r(C)p.r(C)p.r(U)p.r(U)p.r(C)p.r(A)p.r(C)p.r(G)p.r(A)p.r(C)p.r(U)p.r(C)p.r(U)p.r(A)p.r(A)p.d(T)p.d(T)}|RNA2{r(U)p.r(U)p.r(A)p.r(G)p.r(A)p.r(G)p.r(U)p.r(C)p.r(G)p.r(U)p.r(G)p.r(A)p.r(A)p.r(G)p.r(G)p.r(U)p.r(A)p.r(A)p.r(A)p.d(A)p.d(T)}$$$RNA1{StrandType:ss}|RNA2{StrandType:as}$ — higher, 110%

biological target: TMEM63B; experiment: reporter assay of Huesken 2005; settings: siRNA

Point of comparison: “RNA1{r(A)p.r(C)p.r(A)p.r(G)p.r(C)p.r(C)p.r(A)p.r(U)p.r(G)p.r(A)p.r(C)p.r(C)p.r(G)p.r(G)p.r(U)p.r(A)p.r(U)p.r(G)p.r(A)p.d(T)p.d(T)}|RNA2{r(U)p.r(C)p.r(A)p.r(U)p.r(A)p.r(C)p.r(C)p.r(G)p.r(G)p.r(U)p.r(C)p.r(A)p.r(U)p.r(G)p.r(G)p.r(C)p.r(U)p.r(G)p.r(U)p.d(C)p.d(C)}$$$RNA1{StrandType:ss}|RNA2{StrandType:as}$”, normalised inhibition (eCFP-eYFP dual reporter) 56.4%. Against it:
- RNA1{r(A)p.r(A)p.r(C)p.r(C)p.r(A)p.r(C)p.r(C)p.r(A)p.r(U)p.r(U)p.r(G)p.r(C)p.r(C)p.r(A)p.r(A)p.r(C)p.r(U)p.r(U)p.r(G)p.d(T)p.d(T)}|RNA2{r(C)p.r(A)p.r(A)p.r(G)p.r(U)p.r(U)p.r(G)p.r(G)p.r(C)p.r(A)p.r(A)p.r(U)p.r(G)p.r(G)p.r(U)p.r(G)p.r(G)p.r(U)p.r(U)p.d(C)p.d(T)}$$$RNA1{StrandType:ss}|RNA2{StrandType:as}$ — lower, 34.2%
- RNA1{r(A)p.r(A)p.r(C)p.r(G)p.r(C)p.r(C)p.r(A)p.r(U)p.r(G)p.r(G)p.r(A)p.r(C)p.r(C)p.r(U)p.r(G)p.r(C)p.r(U)p.r(G)p.r(C)p.d(T)p.d(T)}|RNA2{r(G)p.r(C)p.r(A)p.r(G)p.r(C)p.r(A)p.r(G)p.r(G)p.r(U)p.r(C)p.r(C)p.r(A)p.r(U)p.r(G)p.r(G)p.r(C)p.r(G)p.r(U)p.r(U)p.d(G)p.d(C)}$$$RNA1{StrandType:ss}|RNA2{StrandType:as}$ — lower, 27.2%
- RNA1{r(A)p.r(A)p.r(C)p.r(G)p.r(U)p.r(G)p.r(C)p.r(C)p.r(U)p.r(A)p.r(C)p.r(C)p.r(A)p.r(U)p.r(G)p.r(A)p.r(U)p.r(C)p.r(A)p.d(T)p.d(T)}|RNA2{r(U)p.r(G)p.r(A)p.r(U)p.r(C)p.r(A)p.r(U)p.r(G)p.r(G)p.r(U)p.r(A)p.r(G)p.r(G)p.r(C)p.r(A)p.r(C)p.r(G)p.r(U)p.r(U)p.d(C)p.d(T)}$$$RNA1{StrandType:ss}|RNA2{StrandType:as}$ — higher, 80.1%
- RNA1{r(A)p.r(A)p.r(G)p.r(A)p.r(U)p.r(C)p.r(A)p.r(A)p.r(G)p.r(A)p.r(A)p.r(G)p.r(C)p.r(A)p.r(U)p.r(U)p.r(U)p.r(U)p.r(G)p.d(T)p.d(T)}|RNA2{r(C)p.r(A)p.r(A)p.r(A)p.r(A)p.r(U)p.r(G)p.r(C)p.r(U)p.r(U)p.r(C)p.r(U)p.r(U)p.r(G)p.r(A)p.r(U)p.r(C)p.r(U)p.r(U)p.d(T)p.d(T)}$$$RNA1{StrandType:ss}|RNA2{StrandType:as}$ — higher, 61.7%
- RNA1{r(A)p.r(A)p.r(G)p.r(G)p.r(A)p.r(G)p.r(A)p.r(A)p.r(C)p.r(G)p.r(U)p.r(G)p.r(C)p.r(C)p.r(U)p.r(A)p.r(C)p.r(C)p.r(A)p.d(T)p.d(T)}|RNA2{r(U)p.r(G)p.r(G)p.r(U)p.r(A)p.r(G)p.r(G)p.r(C)p.r(A)p.r(C)p.r(G)p.r(U)p.r(U)p.r(C)p.r(U)p.r(C)p.r(C)p.r(U)p.r(U)p.d(G)p.d(C)}$$$RNA1{StrandType:ss}|RNA2{StrandType:as}$ — higher, 70.2%

— the OligoGym collection
